Source: ChEMBL document CHEMBL2203150, “CXCR3 antagonists: quaternary ammonium salts equipped with biphenyl- and polycycloaliphatic-anchors” (Bioorg Med Chem, 2011)

Molecular target: T1, C-X-C chemokine receptor type 3 (Homo sapiens) (UniProt P49682)
T1 sequence (whole entry): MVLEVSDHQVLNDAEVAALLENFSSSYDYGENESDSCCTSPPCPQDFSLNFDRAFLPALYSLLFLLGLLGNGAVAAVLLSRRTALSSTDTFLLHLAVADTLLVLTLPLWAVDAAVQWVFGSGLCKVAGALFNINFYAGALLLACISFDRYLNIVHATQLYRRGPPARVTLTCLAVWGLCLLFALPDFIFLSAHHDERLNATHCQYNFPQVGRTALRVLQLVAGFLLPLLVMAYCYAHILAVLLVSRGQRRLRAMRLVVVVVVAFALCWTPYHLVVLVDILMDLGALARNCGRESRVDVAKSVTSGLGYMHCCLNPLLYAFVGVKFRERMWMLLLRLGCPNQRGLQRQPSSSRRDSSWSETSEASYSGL
Experiment: Antagonist activity at human CXCR3 expressed in HEK293T cells co-expressing Galphaqi5 assessed as inhibition of CXCL10-induced [3H]-inositolphosphates levels
Assay type: functional, cell-based
Settings: HEK-293T

Row | pKb | inhibition | Structure (SMILES)
1 | 6.3 |  | CC1(C)[C@H]2CC=C(C[N+](C)(C)Cc3ccc(Cl)cc3)[C@@H]1C2
2 | 6.6 |  | CC1(C)[C@H]2CC=C(C[N+](C)(C)Cc3ccc(I)cc3)[C@@H]1C2
3 | 6.3 |  | CC1(C)[C@H]2CC=C(C[N+](C)(C)Cc3ccc(-c4cccc(Cl)c4)cc3)[C@@H]1C2
4 | 8 | Dose-dependent effect | CCOc1ccc(-n2c([C@@H](C)N(Cc3cccnc3)C(=O)Cc3ccc(OC(F)(F)F)cc3)nc3ncccc3c2=O)cc1
5 | 6.4 |  | CC1(C)[C@H]2CC=C(C[N+](C)(C)Cc3ccc(-c4ccsc4)cc3)[C@@H]1C2

Molecular target: T2, C-X-C chemokine receptor type 3 (Homo sapiens, UniProt P49682)
T2 sequence (P49682 whole entry): T1 sequence (whole entry)
Experiment: Displacement of [125I]-CXCL11 from human CXCR3 expressed in HEK293 cells
Assay type: cell-based
Settings: not given

Row | Ki [µM] | Structure (SMILES)
6 | 0.501 | CC1(C)[C@H]2CC=C(C[N+](C)(C)Cc3ccc(Cl)cc3)[C@@H]1C2
7 | 0.398 | CC1(C)[C@H]2CC=C(C[N+](C)(C)Cc3ccc(I)cc3)[C@@H]1C2
8 | 0.316 | CC1(C)[C@H]2CC=C(C[N+](C)(C)Cc3ccc(-c4cccc(Cl)c4)cc3)[C@@H]1C2
9 | 3.98 | N=C(Nc1ccc(I)cc1)NC1C2CC3CC(C2)CC1C3 (stereo not drawn)
10 | 0.316 | CC1(C)[C@H]2CC=C(C[N+](C)(C)Cc3ccc(-c4ccsc4)cc3)[C@@H]1C2

Molecular target: T2, C-X-C chemokine receptor type 3
Experiment: Displacement of [125I]-CXCL10 from human CXCR3 expressed in HEK293 cells
Assay type: cell-based
Settings: not given

Row | Ki [µM] | Structure (SMILES)
11 | 0.251 | CC1(C)[C@H]2CC=C(C[N+](C)(C)Cc3ccc(-c4ccoc4)cc3)[C@@H]1C2
12 | 7.94 | CN(Cc1ccc(I)cc1)CC1C2CC3CC(C2)CC1C3 (stereo not drawn)
13 | 0.2 | CC1(C)[C@H]2CC=C(C[N+](C)(C)Cc3ccc(-c4cccc([N+](=O)[O-])c4)cc3)[C@@H]1C2
14 | 3.16 | CN(CC1=CC[C@H]2C[C@@H]1C2(C)C)Cc1ccc(Br)cc1
15 | 0.398 | CC1(C)[C@H]2CC=C(C[N+](C)(C)Cc3ccc(Cl)c(Cl)c3)[C@@H]1C2
16 | 2.51 | Ic1ccc(CNCC2C3CC4CC(C3)CC2C4)cc1 (stereo not drawn)
17 | > 0.316 | COc1ccc(-c2ccc(CN(C)CC3=CC[C@H]4C[C@@H]3C4(C)C)cc2)cc1OC
18 | 0.316 | CC1(C)[C@H]2CC=C(C[N+](C)(C)Cc3ccc(-c4cccc(F)c4)cc3)[C@@H]1C2
19 | 0.2 | CC1(C)[C@H]2CC=C(C[N+](C)(C)Cc3ccc(Cl)cc3)[C@@H]1C2
20 | 0.501 | CC1(C)[C@H]2CC=C(C[N+](C)(C)Cc3ccc4c(c3)Cc3ccccc3-4)[C@@H]1C2
21 | 0.398 | Cc1cccc(-c2ccc(C[N+](C)(C)CC3=CC[C@H]4C[C@@H]3C4(C)C)cc2)c1
22 | 2 | CN(CC1=CC[C@H]2C[C@@H]1C2(C)C)Cc1ccc(-c2cccc([N+](=O)[O-])c2)cc1
23 | 2.51 | CC1(C)[C@H]2CC=C(C[N+]3(C)CCc4ccccc4C3)[C@@H]1C2 (stereo partly drawn)
24 | 2.51 | CN(CC1=CC[C@H]2C[C@@H]1C2(C)C)Cc1ccc(Cl)cc1
25 | > 0.316 | CN(CC1=CC[C@H]2C[C@@H]1C2(C)C)Cc1cccc(-c2ccccc2)c1
26 | 1.58 | CC1(C)[C@H]2CC=C(C[N+](C)(C)Cc3ccccc3I)[C@@H]1C2
27 | 5.01 | CN(CCC12CC3CC(CC(C3)C1)C2)Cc1ccc(I)cc1
28 | 1.26 | CC1(C)[C@H]2CC=C(C[N+](C)(C)Cc3ccc(F)cc3)[C@@H]1C2
29 | 1.58 | CC1(C)[C@@H]2CC[C@@]1(C)C(C[N+](C)(C)Cc1ccc(I)cc1)C2 (mixture of isomers)
30 | > 0.316 | CN(CC1=CC[C@H]2C[C@@H]1C2(C)C)Cc1ccc(-c2ccc(Cl)cc2)cc1
31 | 3.16 | CN(CC1=CC[C@H]2C[C@@H]1C2(C)C)Cc1ccc(-c2ccccc2)cc1
32 | 0.501 | CC1(C)[C@H]2CC=C(C[N+](C)(C)Cc3ccc(-c4cccc(C(F)(F)F)c4)cc3)[C@@H]1C2
33 | > 0.316 | Cc1cccc(-c2ccc(CN(C)CC3=CC[C@H]4C[C@@H]3C4(C)C)cc2)c1
34 | 0.251 | CC1(C)[C@H]2CC=C(C[N+](C)(C)Cc3ccc(I)cc3)[C@@H]1C2
35 | 0.126 | CC1(C)[C@H]2CC=C(C[N+](C)(C)Cc3ccc(-c4cccc(Cl)c4)cc3)[C@@H]1C2
36 | 3.16 | CN(CC1=CC[C@H]2C[C@@H]1C2(C)C)Cc1ccc(I)cc1

Row | Ki [µM] | Structure (SMILES)
37 | 2 | CC1(C)[C@H]2CC=C(C[N+](C)(C)Cc3cccc(I)c3)[C@@H]1C2
38 | > 0.316 | CN(CC1=CC[C@H]2C[C@@H]1C2(C)C)Cc1ccc(-c2cccc(C(F)(F)F)c2)cc1
39 | > 0.316 | CN(CC1=CC[C@H]2C[C@@H]1C2(C)C)Cc1ccc2c(c1)Cc1ccccc1-2
40 | 1.58 | CC1(C)[C@H]2CC=C(C[N+](C)(C)Cc3ccc(-c4cccc(O)c4)cc3)[C@@H]1C2
41 | 1.26 | CC1(C)[C@H]2CC=C(C[N+](C)(C)Cc3ccc(-c4ccc(C(F)(F)F)cc4)cc3)[C@@H]1C2
42 | > 0.316 | CN(CC1=CC[C@H]2C[C@@H]1C2(C)C)Cc1ccc(-c2cc(Cl)cc(Cl)c2)cc1
43 | 0.794 | C[N+](C)(Cc1ccc(I)cc1)CC1C2CC3CC(C2)CC1C3 (stereo not drawn)
44 | 3.98 | N=C(Nc1ccc(I)cc1)NC1C2CC3CC(C2)CC1C3 (stereo not drawn)
45 | 3.98 | CN(CC1=CC[C@H]2C[C@@H]1C2(C)C)Cc1ccc(-c2cccc(Cl)c2)cc1
46 | 5.01 | CN(CC1=CC[C@H]2C[C@@H]1C2(C)C)Cc1ccccc1I
47 | 3.98 | CN(CC1=CC[C@H]2C[C@@H]1C2(C)C)Cc1ccc(-c2ccsc2)cc1
48 | 3.16 | CN(CC1=CC[C@H]2C[C@@H]1C2(C)C)Cc1ccc(Cl)c(Cl)c1
49 | 12.6 | CC1(C)[C@H]2CC=C(CN3CCc4ccccc4C3)[C@@H]1C2
50 | 15.8 | CN(CC1=CC[C@H]2C[C@@H]1C2(C)C)Cc1ccccc1
51 | 0.316 | CC1(C)[C@H]2CC=C(C[N+](C)(C)Cc3ccc(Br)cc3)[C@@H]1C2
52 | 0.501 | CC1(C)[C@H]2CC=C(C[N+](C)(C)Cc3ccc4oc5ccccc5c4c3)[C@@H]1C2
53 | 0.501 | CC1(C)[C@H]2CC=C(C[N+](C)(C)Cc3ccc(-c4ccc(Cl)cc4)cc3)[C@@H]1C2
54 | 3.98 | CC1(C)[C@H]2CC=C(C[N+](C)(C)Cc3ccccc3)[C@@H]1C2
55 | 2 | C[N+](C)(Cc1ccc(I)cc1)CC12CC3CC(CC(C3)C1)C2
56 | 3.98 | CCN(CC1=CC[C@H]2C[C@@H]1C2(C)C)Cc1ccc(I)cc1
57 | 2 | CC1(C)[C@H]2CC=C(C[N+](C)(C)Cc3ccc(Oc4ccccc4)cc3)[C@@H]1C2
58 | > 0.316 | CN(CC1=CC[C@H]2C[C@@H]1C2(C)C)Cc1ccc2oc3ccccc3c2c1
59 | > 0.316 | CN(CC1=CC[C@H]2C[C@@H]1C2(C)C)Cc1ccc(-c2cccc(O)c2)cc1
60 | 1 | COC(=O)c1cccc(-c2ccc(C[N+](C)(C)CC3=CC[C@H]4C[C@@H]3C4(C)C)cc2)c1
61 | 1 | Cn1c2ccccc2c2ccc(C[N+](C)(C)CC3=CC[C@H]4C[C@@H]3C4(C)C)cc21
62 | 0.631 | CC1(C)[C@H]2CC=C(C[N+](C)(C)Cc3ccc(-c4ccccc4F)cc3)[C@@H]1C2

Row | Ki [µM] | Structure (SMILES)
63 | > 0.316 | CN(CC1=CC[C@H]2C[C@@H]1C2(C)C)Cc1ccc(Oc2ccccc2)cc1
64 | 0.631 | CC(=O)c1cccc(-c2ccc(C[N+](C)(C)CC3=CC[C@H]4C[C@@H]3C4(C)C)cc2)c1
65 | 7.94 | CN(CC1=CC[C@H]2C[C@@H]1C2(C)C)Cc1cccc(I)c1
66 | > 0.316 | COC(=O)c1cccc(-c2ccc(CN(C)CC3=CC[C@H]4C[C@@H]3C4(C)C)cc2)c1
67 | 0.398 | CC1(C)[C@H]2CC=C(C[N+](C)(C)Cc3ccc(-c4cc(Cl)cc(Cl)c4)cc3)[C@@H]1C2
68 | 6.31 | CN(CC1=CC[C@H]2C[C@@H]1C2(C)C)Cc1ccc(F)cc1
69 | 3.16 | CC1(C)[C@H]2CC=C(C[N+](C)(C)Cc3ccc(-c4cccc(N)c4)cc3)[C@@H]1C2
70 | 6.31 | CN(CC1=CC[C@H]2C[C@@H]1C2(C)C)Cc1ccc(-c2cccc(N)c2)cc1
71 | > 0.316 | CC(=O)c1cccc(-c2ccc(CN(C)CC3=CC[C@H]4C[C@@H]3C4(C)C)cc2)c1
72 | > 0.316 | CN(CC1=CC[C@H]2C[C@@H]1C2(C)C)Cc1ccc(-c2ccc(C(F)(F)F)cc2)cc1
73 | 1 | CC1(C)[C@H]2CC=C(C[N+](C)(C)CCc3ccc(Cl)cc3)[C@@H]1C2
74 | 0.501 | COc1ccc(-c2ccc(C[N+](C)(C)CC3=CC[C@H]4C[C@@H]3C4(C)C)cc2)cc1OC
75 | > 0.316 | CN(CC1=CC[C@H]2C[C@@H]1C2(C)C)Cc1ccc(-c2ccccc2F)cc1
76 | 3.16 | CC1(C)[C@H]2CC=C(C[N+](C)(C)Cc3cccc(-c4ccccc4)c3)[C@@H]1C2
77 | > 0.316 | CN(CC1=CC[C@H]2C[C@@H]1C2(C)C)Cc1ccc2c3ccccc3n(C)c2c1
78 | 2.51 | CN(CC1=CC[C@H]2C[C@@H]1C2(C)C)Cc1ccc(-c2cccc(F)c2)cc1
79 | 7.94 | CN(Cc1ccc(I)cc1)CC1C[C@H]2CC[C@]1(C)C2(C)C (mixture of isomers)
80 | 7.94 | CN(C/C1=C/CCCCCC1)Cc1ccc(I)cc1 (mixture of isomers)
81 | 0.316 | CC1(C)[C@H]2CC=C(C[N+](C)(C)Cc3ccc(-c4ccccc4)cc3)[C@@H]1C2
82 | 0.631 | C[N+](C)(CCC12CC3CC(CC(C3)C1)C2)Cc1ccc(I)cc1
83 | 1 | C[N+](C)(C/C1=C/CCCCCC1)Cc1ccc(I)cc1 (mixture of isomers)
84 | 0.2 | CC1(C)[C@H]2CC=C(C[N+](C)(C)Cc3ccc(-c4ccsc4)cc3)[C@@H]1C2
85 | 0.631 | CC[N+](C)(CC1=CC[C@H]2C[C@@H]1C2(C)C)Cc1ccc(I)cc1 (stereo partly drawn)
86 | 6.31 | CN(CC1=CC[C@H]2C[C@@H]1C2(C)C)Cc1ccc(-c2ccoc2)cc1

Row | Structure (SMILES) | Ki [µM]
87 | CN(CCc1ccc(Cl)cc1)CC1=CC[C@H]2C[C@@H]1C2(C)C | 5.01
